# Test results published in patent US9802899B2, “Heterocyclic compounds as pesticides” (BAYER CROPSCIENCE AG, priority 2012, dated 2017).
# Assay: Determination of the log P values by HPLC (formic acid method)
# Format: physicochemical
# Details: reversed-phase column (C 18), acidic range (pH 3.4), 55° C.
# Protocol: 1) Description of Method for Determination of the Log P Values (Formic Acid Method)
# Eluents for determination in the acidic range (pH 3.4):
# Eluent A: acetonitrile+1 ml of formic acid/liter. Eluent B: water+0.9 ml of formic acid/liter.
# The lambda max values were determined in the maxima of the chromatographic signals using the UV spectra from 200 nm to 400 nm.
row,log P,SMILES
1,2.76,Cc1nn(C)c(C(=O)Nc2ccn(-c3c(F)cccc3F)n2)c1Br [Compound I-1-298]
2,2.84,CCn1ncc(Br)c1C(=O)Nc1ccn(-c2c(F)cccc2F)n1 [Compound I-1-299]
3,3.15,CCn1nc(C)c(Br)c1C(=O)Nc1ccn(-c2c(F)cccc2F)n1 [Compound I-1-300]
4,2.37,Cn1cc(Br)c(C(=O)Nc2ccn(-c3c(F)cccc3F)n2)n1 [Compound I-1-301]
5,2.50,Cn1ncc(Br)c1C(=O)Nc1ccn(-c2c(F)cccc2F)n1 [Compound I-1-302]
6,3.37,Cn1nc(C(F)(F)F)c(Br)c1C(=O)Nc1ccn(-c2c(F)cccc2F)n1 [Compound I-1-303]
7,3.38,Cc1oc(C)c(C(=O)Nc2ccn(-c3c(F)cccc3F)n2)c1Br [Compound I-1-304]
8,2.61,O=C(Nc1ccn(-c2c(F)cccc2F)n1)c1cscc1Br [Compound I-1-305]
9,3.11,Cc1nn(C(F)F)c(C(=O)Nc2ccn(-c3c(F)cccc3F)n2)c1Cl [Compound I-1-306]
10,2.78,Cc1nn(C)c(C(=O)Nc2ccn(-c3c(F)cccc3F)n2)c1Cl [Compound I-1-307]
11,2.61,CCn1ncc(Cl)c1C(=O)Nc1ccn(-c2c(F)cccc2F)n1 [Compound I-1-308]
12,3.15,CCn1nc(C)c(Cl)c1C(=O)Nc1ccn(-c2c(F)cccc2F)n1 [Compound I-1-309]
13,3.28,CC(C)n1nc([N+](=O)[O-])c(Cl)c1C(=O)Nc1ccn(-c2c(F)cccc2F)n1 [Compound I-1-310]
14,2.46,Cn1ncc(Cl)c1C(=O)Nc1ccn(-c2c(F)cccc2F)n1 [Compound I-1-311]
15,2.70,Cn1nc([N+](=O)[O-])c(Cl)c1C(=O)Nc1ccn(-c2c(F)cccc2F)n1 [Compound I-1-312]
16,3.68,CCCc1nn(C)c(C(=O)Nc2ccn(-c3c(F)cccc3F)n2)c1Cl [Compound I-1-313]
17,3.32,CCCc1c(Cl)c(C(=O)Nc2ccn(-c3c(F)cccc3F)n2)nn1C [Compound I-1-314]
18,3.05,CCCn1cc(Cl)c(C(=O)Nc2ccn(-c3c(F)cccc3F)n2)n1 [Compound I-1-315]
19,3.24,CCc1nn(C)c(C(=O)Nc2ccn(-c3c(F)cccc3F)n2)c1Cl [Compound I-1-316]
20,3.37,Cn1nc(C(F)(F)C(F)(F)F)c(C#N)c1C(=O)Nc1ccn(-c2c(F)cccc2F)n1 [Compound I-1-317]
21,2.98,Cn1nc(C(F)(F)F)c(C#N)c1C(=O)Nc1ccn(-c2c(F)cccc2F)n1 [Compound I-1-318]
22,2.68,O=C(Nc1ccn(-c2c(F)cccc2F)n1)c1snnc1C1CC1 [Compound I-1-319]
23,2.20,Cc1nn(C)c(C(=O)Nc2ccn(-c3c(F)cccc3F)n2)c1F [Compound I-1-320]
24,2.27,Cn1ncc(F)c1C(=O)Nc1ccn(-c2c(F)cccc2F)n1 [Compound I-1-321]
25,2.80,O=C(Nc1ccn(-c2c(F)cccc2F)n1)c1ccc(F)cc1C(F)(F)F [Compound I-1-322]

row,log P,SMILES
1,3.47,CC(C)Cn1ncc(I)c1C(=O)Nc1ccn(-c2c(F)cccc2F)n1 [Compound I-1-323]
2,2.46,Cn1ncc(I)c1C(=O)Nc1ccn(-c2c(F)cccc2F)n1 [Compound I-1-324]
3,3.11,CCCn1ncc(I)c1C(=O)Nc1ccn(-c2c(F)cccc2F)n1 [Compound I-1-325]
4,2.15,Cc1nnsc1C(=O)Nc1ccn(-c2c(F)cccc2F)n1 [Compound I-1-326]
5,2.24,Cc1cnoc1C(=O)Nc1ccn(-c2c(F)cccc2F)n1 [Compound I-1-327]
6,1.51,Cn1cnnc1C(=O)Nc1ccn(-c2c(F)cccc2F)n1 [Compound I-1-328]
7,3.11,O=C(Nc1ccn(-c2c(F)cccc2F)n1)c1cc(Cl)ccc1C(F)(F)F [Compound I-1-329]
8,2.14,O=C(Nc1ccn(-c2c(F)cccc2F)n1)c1ncncc1Cl [Compound I-1-330]
9,2.80,O=C(Nc1ccn(-c2c(F)cccc2F)n1)c1cc(F)ccc1C(F)(F)F [Compound I-1-331]
10,2.45,Cc1snnc1C(=O)Nc1ccn(-c2c(F)cccc2F)n1 [Compound I-1-332]
11,2.30,CC1=C(C(=O)Nc2ccn(-c3c(F)cccc3F)n2)CCCO1 [Compound I-1-333]
12,2.70,O=C(Nc1ccn(-c2ccccc2Br)n1)c1c(F)cccc1F [Compound I-1-334]
13,1.44,Cc1cccnc1C(=O)Nc1ccn(-c2ccccc2Br)n1 [Compound I-1-336]
14,2.70,Cc1cn(-c2ccccc2Cl)nc1NC(=O)c1c(F)cccc1F [Compound I-1-352]
15,2.97,Cc1cccc(C)c1C(=O)Nc1ccn(-c2ccccc2Cl)n1 [Compound I-1-353]
16,2.38,O=C(Nc1ccn(-c2ccccc2Cl)n1)c1cccnc1F [Compound I-1-364]
17,2.88,Cc1nc(C(F)(F)F)c(C(=O)Nc2ccn(-c3ccccc3Cl)n2)s1 [Compound I-1-371]
18,2.75,CC1=C(C(=O)Nc2ccn(-c3ccccc3Cl)n2)SCCO1 [Compound I-1-372]
19,3.15,O=C(Nc1ccn(-c2ccccc2Cl)n1)c1sccc1C(F)F [Compound I-1-374]
20,3.15,O=C(Nc1ccn(-c2ccccc2Cl)n1)c1sccc1C(F)(F)F [Compound I-1-375]
21,3.29,O=C(Nc1ccn(-c2ccccc2Cl)n1)c1sccc1Cl [Compound I-1-377]
22,3.34,O=C(Nc1ccn(-c2ccccc2Cl)n1)c1sccc1I [Compound I-1-379]
23,2.15,Cc1nn(C)c(F)c1C(=O)Nc1ccn(-c2ccccc2Cl)n1 [Compound I-1-382]
24,2.86,Cn1nc(C(F)(F)F)c(C(=O)Nc2ccn(-c3ccccc3Cl)n2)c1F [Compound I-1-383]

# Further lines, the compound ahead of its results:
row,SMILES,log P
1,Cc1ccc(-n2ccc(NC(=O)c3ccccc3Br)n2)c(Cl)c1 [Compound I-1-338],3.23
2,Cc1ccc(-n2ccc(NC(=O)c3ccccc3Cl)n2)c(Cl)c1 [Compound I-1-339],3.20
3,CCOc1cccc(Cl)c1-n1ccc(NC(=O)c2ccccc2C(F)(F)F)n1 [Compound I-1-340],3.15
4,CS(=O)(=O)c1ccccc1C(=O)Nc1ccn(-c2ccccc2Cl)n1 [Compound I-1-341],2.17
5,Cc1cc(NC(=O)c2ccccc2S(C)(=O)=O)nn1-c1ccccc1Cl [Compound I-1-342],1.82
6,Cc1cc(NC(=O)c2ccccc2OC(F)(F)F)nn1-c1ccccc1Cl [Compound I-1-343],2.87
7,O=C(Nc1ccn(-c2ccccc2Cl)n1)c1cccnc1OC(F)(F)F [Compound I-1-344],3.10
8,Cc1cn(-c2ccccc2Cl)nc1NC(=O)c1ccccc1C(F)(F)F [Compound I-1-345],3.01
9,N#Cc1cn(-c2ccccc2Cl)nc1NC(=O)c1ccccc1C(F)(F)F [Compound I-1-346],2.53
10,Cc1cc(NC(=O)c2ccccc2C(F)(F)F)nn1-c1ccccc1Cl [Compound I-1-347],2.58
11,Cc1cn(-c2ccccc2Cl)nc1NC(=O)c1cccnc1C(F)(F)F [Compound I-1-348],2.53
12,Cc1cc(NC(=O)c2cccnc2C(F)(F)F)nn1-c1ccccc1Cl [Compound I-1-349],2.13
13,O=C(Nc1ccn(-c2ccccc2Cl)n1)c1cccc(Cl)c1Cl [Compound I-1-350],3.20
14,O=C(Nc1ccn(-c2ccccc2Cl)n1)c1c(Cl)cccc1Cl [Compound I-1-351],3.00
15,Cc1cn(-c2ccccc2Cl)nc1NC(=O)c1ccccc1Br [Compound I-1-354],2.86
16,Nc1cc(NC(=O)c2ccccc2Br)nn1-c1ccccc1Cl [Compound I-1-355],1.94
17,Cc1cc(NC(=O)c2ccccc2Br)nn1-c1ccccc1Cl [Compound I-1-356],2.45
18,Cc1cn(-c2ccccc2Cl)nc1NC(=O)c1cccnc1Br [Compound I-1-357],2.23

row,SMILES,log P
1,O=C(Nc1ccn(-c2ccccc2Cl)n1)c1cccnc1Br [Compound I-1-358],2.22
2,Cc1cc(NC(=O)c2cccnc2Br)nn1-c1ccccc1Cl [Compound I-1-359],1.85
3,Cc1cn(-c2ccccc2Cl)nc1NC(=O)c1ccccc1Cl [Compound I-1-360],2.80
4,Nc1cc(NC(=O)c2ccccc2Cl)nn1-c1ccccc1Cl [Compound I-1-361],1.88
5,N#Cc1cn(-c2ccccc2Cl)nc1NC(=O)c1ccccc1Cl [Compound I-1-362],2.37
6,O=C(Nc1ccn(-c2ccccc2Cl)n1)c1nccnc1Cl [Compound I-1-363],2.45
7,Cc1cn(-c2ccccc2Cl)nc1NC(=O)c1ccccc1I [Compound I-1-365],2.99
8,O=C(Nc1nn(-c2ccccc2Cl)cc1Br)c1ccccc1I [Compound I-1-366],3.12
9,O=C(Nc1nn(-c2ccccc2Cl)cc1I)c1ccccc1I [Compound I-1-367],3.18
10,N#Cc1cn(-c2ccccc2Cl)nc1NC(=O)c1ccccc1I [Compound I-1-368],2.51
11,O=C(Nc1ccn(-c2ccccc2Cl)n1)c1cccnc1I [Compound I-1-369],2.27
12,Cc1occc1C(=O)Nc1ccn(-c2ccccc2Cl)n1 [Compound I-1-370],2.71
13,CC(C)(C)c1ccccc1C(=O)Nc1ccn(-c2ccccc2Cl)n1 [Compound I-1-373],3.85
14,Cc1cc(NC(=O)c2ncccc2C(F)(F)F)nn1-c1ccccc1Cl [Compound I-1-376],2.57
15,O=C(Nc1ccn(-c2ccccc2Cl)n1)c1occc1I [Compound I-1-378],2.96
16,Cc1cc(NC(=O)c2cnccc2C(F)(F)F)nn1-c1ccccc1Cl [Compound I-1-380],2.09
17,O=C(Nc1ccn(-c2ccccc2Cl)n1)c1cnccc1Cl [Compound I-1-381],2.19
